Results taken from US20240002385A1, “PIPERIDINYL-METHYL-PURINE AMINE D-TARTARIC ACID SALTS, CRYSTALLINE FORMS, AND THEIR USE IN TREATING MEDICAL DISEASES AND CONDITIONS” (K36 Therapeutics, Inc., priority 2022, published 2024).
Values after ≈ are worked out from the molar mass of the structure shown.

Key:
Type in all cases: physicochemical
[1] = Analysis of aqueous solubility (water and fasted state simulated intestinal fluid); conditions: 37° C.; for solubility at 24 h: thermodynamic from solid, read-out: Test Compound Solubility
Protocol: Solubility of test compounds in two different liquids was evaluated: (a) water and (b) fasted state simulated intestinal fluid. Test compounds analyzed were: • crystalline (S)-1-((R)-3-amino-1-(4-((6-amino-9H-purin-9-yl)methyl)-6-(2,5-difluoro-4-methoxyphenyl) pyridin-3-yl)piperidin-3-yl)-2,2-difluoroethan-1-ol D-tartaric acid salt, as set forth in Example 4 (hereinafter “Compound A”); • (S)-1-((R)-3-amino-1-(4-((6-amino-9H-purin-9-yl)methyl)-6-(2,5-difluoro-4-methoxyphenyl) pyridin-3-yl)piperidin-3-yl)-2,2-difluoroethan-1-ol fumaric acid salt (hereinafter “Compound B”); • (S)-1-((R)-3-amino-1-(4-((6-amino-9H-purin-9-yl)methyl)-6-(2,5-difluoro-4-methoxyphenyl) pyridin-3-yl)piperidin-3-yl)-2,2-difluoroethan-1-ol free base (hereinafter “Compound C”).
An aliquot of test compound was placed in the liquid at a temperature of 37° C., and then after 24 hours the concentration of dissolved test compound was determined. pH of the solution at 24 hours was also measured.

[2] = Salt form observations: hydrate formation and hygroscopicity
[3] = Hygroscopicity by dynamic vapor sorption; conditions: transitioned from 5% to 95% relative humidity
Protocol: The title compound was analyzed for hygroscopicity by dynamic vapor sorption. Dynamic vapor sorption was performed using a Q5000SA. The sample (5-15 mg) was loaded into a metallic quartz sample pan, suspended from a microbalance, and exposed to a humidified stream of nitrogen gas. Weight changes were relative to a matching empty reference pan opposite the sample, suspended from the microbalance. The sample was held for a minimum of 10 min at each humidity level and only progressed to the next humidity level if there was <0.002% change in weight between measurements (interval: 5 s) or 60 min had elapsed. The following program was used: • 1. Equilibration at 50% RH • 2. 50% to 5% (50%, 35%, 20%, and 5%) • 3. 5% to 95%(5%, 20%, 35%, 50%, 65%, 80%, and 95%) • 4. 95% to 5% (95%, 80%, 65%, 50%, 35%, 20%, and 5%) • 5. 5% to 50%(5%, 20%, 35%, and 50%).

[4] = Water content by Karl Fischer titration
Protocol: The title compound was analyzed for water content by Karl Fischer (KF) titration, and determined to have a water content of 1.22 wt %. Karl Fischer (KF) titration for water determination was performed using a Mettler Toledo C20S Coulometric KF Titrator equipped with a current generator cell with a diaphragm, and a double-platinum-pin electrode. The range of detection of the instrument is 1 ppm to 5% water. Aquastar™ CombiCoulomat fritless reagent was used in both the anode and cathode compartments. Samples of approximately 0.03-0.10 g were dissolved in the anode compartment and titrated until the solution potential dropped below 100 mV. Hydranal 1 wt % water standard was used for validation prior to sample analysis.

[5] = Water solubility of crystalline form at pH 6.8 and 37° C.; conditions: aqueous buffer, pH 6.8, 37° C.
[6] = Accelerated stability study (six days, 75% RH, 40° C.)
Protocol: An accelerated stability study was conducted on the crystalline form of (S)-1-((R)-3-amino-1-(4-((6-amino-9H-purin-9-yl)methyl)-6-(2,5-difluoro-4-methoxyphenyl) pyridin-3-yl)piperidin-3-yl)-2,2-difluoroethan-1-ol D-tartaric acid salt, prepared as described in Example 1. Approximately 12 mg of solid was placed into a 4-mL vial, and then the vial was covered with a Kimwipe. The vial was stored for six days inside a stability chamber producing a relative humidity of 75% at 40° C.

[7] = One year stability study (25° C.±2° C., 60%±5% RH); conditions: 25° C./60% RH
Protocol: A one-year stability study was conducted on the crystalline form of (S)-1-((R)-3-amino-1-(4-((6-amino-9H-purin-9-yl)methyl)-6-(2,5-difluoro-4-methoxyphenyl) pyridin-3-yl)piperidin-3-yl)-2,2-difluoroethan-1-ol D-tartaric acid salt having an XRDP pattern as set forth in Example 4. In particular, an aliquot of the crystalline (S)-1-((R)-3-amino-1-(4-((6-amino-9H-purin-9-yl)methyl)-6-(2,5-difluoro-4-methoxyphenyl) pyridin-3-yl)piperidin-3-yl)-2,2-difluoroethan-1-ol D-tartaric acid salt was stored for 1 year at a temperature of 25° C.±2° C. where the relative humidity was 60%±5%. A sample of the crystalline (S)-1-((R)-3-amino-1-(4-((6-amino-9H-purin-9-yl)methyl)-6-(2,5-difluoro-4-methoxyphenyl) pyridin-3-yl)piperidin-3-yl)-2,2-difluoroethan-1-ol D-tartaric acid salt was analyzed at the following time points in the experiment: 0 days (i.e., at the start of the experiment), 1 month, 3 months, 6 months, 9 months, and 12 months. The following parameters were evaluated at each time point: physical appearance, water content by coulometric Karl Fischer (CKF) determination, purity by ultra-performance liquid chromatography (UPLC), and total amount of related substances. XRPD analysis was performed on a compound sample at time points 0 days and at 12 months.

[8] = Six-month stability study at elevated temperature and relative humidity (40° C.±2° C., 75%±5% RH); conditions: 40° C./75% RH
Protocol: A six-month stability study was conducted on the crystalline form of (S)-1-((R)-3-amino-1-(4-((6-amino-9H-purin-9-yl)methyl)-6-(2,5-difluoro-4-methoxyphenyl) pyridin-3-yl)piperidin-3-yl)-2,2-difluoroethan-1-ol D-tartaric acid salt having an XRDP pattern as set forth in Example 4. In particular, an aliquot of the crystalline (S)-1-((R)-3-amino-1-(4-((6-amino-9H-purin-9-yl)methyl)-6-(2,5-difluoro-4-methoxyphenyl) pyridin-3-yl)piperidin-3-yl)-2,2-difluoroethan-1-ol D-tartaric acid salt was stored for six months at a temperature of 40° C.±2° C. where the relative humidity was 75%±5%. A sample of the crystalline (S)-1-((R)-3-amino-1-(4-((6-amino-9H-purin-9-yl)methyl)-6-(2,5-difluoro-4-methoxyphenyl) pyridin-3-yl)piperidin-3-yl)-2,2-difluoroethan-1-ol D-tartaric acid salt was analyzed at the following time points in the experiment: 0 days (i.e., at the start of the experiment), 1 month, 3 months, and 6 months. The following parameters were evaluated at each time point: physical appearance, water content by coulometric Karl Fischer (CKF) determination, purity by ultra-performance liquid chromatography (UPLC), and total amount of related substances. XRPD analysis was performed on a compound sample at time points 0 days and at 6 months.

[9] = fassif, fasted state simulated intestinal fluid
[10] = fasted state simulated intestinal fluid

COc1cc(F)c(-c2cc(Cn3cnc4c(N)ncnc43)c(N3CCC[C@](N)([C@H](O)C(F)F)C3)cn2)cc1F [Compound C, (S)-1-((R)-3-amino-1-(4-((6-amino-9H-purin-9-yl)methyl)-6-(2,5-difluoro-4-methoxyphenyl)pyridin-3-yl)piperidin-3-yl)-2,2-difluoroethan-1-ol free base]
solubility at 24 h [1, 9]: 298 µg/mL (≈ 545 µM)
pH of Liquid Medium at 24 Hours [1, 10]: 6.61
solubility at 24 h ([1]; water): 0.2 µg/mL (≈ 0.366 µM)
pH of Liquid Medium at 24 Hours ([1]; water): 6.92

COc1cc(F)c(-c2cc(Cn3cnc4c(N)ncnc43)c(N3CCC[C@](N)([C@H](O)C(F)F)C3)cn2)cc1F.Cl [hydrochloric acid salt]
hydrate formation / anhydrous form [2]: observed to form hydrates

COc1cc(F)c(-c2cc(Cn3cnc4c(N)ncnc43)c(N3CCC[C@](N)([C@H](O)C(F)F)C3)cn2)cc1F.O=C(O)C(O)C(O)C(=O)O [Compound A, (S)-1-((R)-3-amino-1-(4-((6-amino-9H-purin-9-yl)methyl)-6-(2,5-difluoro-4-methoxyphenyl)pyridin-3-yl)piperidin-3-yl)-2,2-difluoroethan-1-ol D-tartaric acid salt]
increase in weight in dynamic vapor sorption [3]: 4.858%
water content by Karl Fischer (KF) titration [4]: 1.22 wt %
solubility at 30 min ([5]; after 30 minutes): > 2000 µg/mL
solubility at 24 h ([5]; after 24 hours): > 2000 µg/mL
XRPD of recovered salt ([6]; after six days, 75% relative humidity, 40° C.): no change of the crystalline form
purity by HPLC ([6]; after the study: six days, 75% relative humidity, 40° C.): 99.45 area percent
purity by HPLC ([6]; before the study): 99.53 area percent
API Purity by UPLC ([7]; 1 month): 99.9 % area in LC trace
Physical Appearance ([7]; 1 month): white
Total Amount of Related Substances by UPLC ([7]; 1 month): 0.05 % w/w
Water Content by CKF ([7]; 1 month): 0.3 % w/w
API Purity by UPLC ([7]; 3 months): 100.0 % area in LC trace
Physical Appearance ([7]; 3 months): white
Total Amount of Related Substances by UPLC ([7]; 3 months): 0.05 % w/w
Water Content by CKF ([7]; 3 months): 0.4 % w/w
API Purity by UPLC ([7]; 6 months): 100.0 % area in LC trace
Physical Appearance ([7]; 6 months): white
Total Amount of Related Substances by UPLC ([7]; 6 months): <0.05 % w/w
Water Content by CKF ([7]; 6 months): 0.3 % w/w
API Purity by UPLC ([7]; 9 months): 100.0 % area in LC trace
Physical Appearance ([7]; 9 months): white
Total Amount of Related Substances by UPLC ([7]; 9 months): <0.05 % w/w
Water Content by CKF ([7]; 9 months): 0.2 % w/w
API Purity by UPLC ([7]; 12 months): 100.0 % area in LC trace
Physical Appearance ([7]; 12 months): white
Total Amount of Related Substances by UPLC ([7]; 12 months): 0.05 % w/w
Water Content by CKF ([7]; 12 months): 0.3 % w/w
API Purity by UPLC ([7]; day 0): 100.0 % area in LC trace
Physical Appearance ([7]; day 0): white wolid
Total Amount of Related Substances by UPLC ([7]; day 0): <0.05 % w/w
Water Content by CKF ([7]; day 0): 0.2 % w/w
XRPD spectrum after storage versus day 0 ([7]; stored for 12 months): matched the XRPD spectrum obtained on said compound at the beginning of the stability study
API Purity by UPLC ([8]; 1 month): 100.0 % area in LC trace
Physical Appearance ([8]; 1 month): white wolid
Total Amount of Related Substances by UPLC ([8]; 1 month): 0.05 % w/w
Water Content by CKF ([8]; 1 month): 0.4 % w/w
API Purity by UPLC ([8]; 3 months): 100.0 % area in LC trace
Physical Appearance ([8]; 3 months): white wolid
Total Amount of Related Substances by UPLC ([8]; 3 months): 0.05 % w/w
Water Content by CKF ([8]; 3 months): 0.4 % w/w
API Purity by UPLC ([8]; 6 months): 100.0 % area in LC trace
Physical Appearance ([8]; 6 months): white wolid
Total Amount of Related Substances by UPLC ([8]; 6 months): <0.05 % w/w
Water Content by CKF ([8]; 6 months): 0.4 % w/w
API Purity by UPLC ([8]; day 0): 100.0 % area in LC trace
Physical Appearance ([8]; day 0): white wolid
Total Amount of Related Substances by UPLC ([8]; day 0): <0.05 % w/w
Water Content by CKF ([8]; day 0): 0.2 % w/w
XRPD spectrum after storage versus day 0 ([8]; stored for 6 months): matched the XRPD spectrum obtained on said compound at the beginning of the stability study
solubility at 24 h [1, 9]: 1600 µg/mL
pH of Liquid Medium at 24 Hours [1, 10]: 5.71
solubility at 24 h ([1]; water): 2400 µg/mL
pH of Liquid Medium at 24 Hours ([1]; water): 3.59
hydrate formation / anhydrous form [2]: could be obtained in anhydrous form
hygroscopicity ([2]; long-duration stability studies): low hygroscopicity

COc1cc(F)c(-c2cc(Cn3cnc4c(N)ncnc43)c(N3CCC[C@](N)([C@H](O)C(F)F)C3)cn2)cc1F.O=C(O)/C=C/C(=O)O [Compound B, (S)-1-((R)-3-amino-1-(4-((6-amino-9H-purin-9-yl)methyl)-6-(2,5-difluoro-4-methoxyphenyl)pyridin-3-yl)piperidin-3-yl)-2,2-difluoroethan-1-ol fumaric acid salt]
solubility at 24 h [1, 9]: 506 µg/mL
pH of Liquid Medium at 24 Hours [1, 10]: 6.06
solubility at 24 h ([1]; water): 488 µg/mL
pH of Liquid Medium at 24 Hours ([1]; water): 4.03
hydrate formation / anhydrous form [2]: observed to form hydrates
